Where “and” joins values, the source holds several entries; their conditions need not be identical. Equal values may be shown once. One block for each molecule: values may come before it.
Tested on: 874868-142-R-J2-PDC complex spheroids, growth % test/control
Assay: Anticancer human tumor 874868-142-R-J2-PDC patient-derived head and neck squamous carcinoma cell line growth inhibition [CLK]
Conditions: for viability, T/C: stronger effect = lower value
Method in brief: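 Multi-cell-type spheroids combined patient-derived tumor cells with HUVEC endothelial cells and human mesenchymal stem cells. Paired agents were dosed in half-log steps down from about clinical Cmax, or from 10 microM where Cmax was unknown.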

[1] = curve of first compound, second compound 0.0316 µM
[2] = curve of first compound, second compound 0.1 µM
[3] = curve of first compound, second compound 0.316 µM
[4] = curve of first compound, second compound 1 µM
[5] = curve of first compound, second compound 3.16 µM
[6] = curve of first compound, second compound 10 µM
[7] = second compound 0.0316 µM, first compound 0.0316 µM
[8] = second compound 0.0316 µM, first compound 0.1 µM
[9] = second compound 0.0316 µM, first compound 0.316 µM
[10] = second compound 0.0316 µM, first compound 1 µM
[11] = second compound 0.0316 µM, first compound 3.16 µM
[12] = second compound 0.0316 µM, first compound 10 µM
[13] = second compound 0.1 µM, first compound 0.0316 µM
[14] = second compound 0.1 µM, first compound 0.1 µM
[15] = second compound 0.1 µM, first compound 0.316 µM
[16] = second compound 0.1 µM, first compound 1 µM
[17] = second compound 0.1 µM, first compound 3.16 µM
[18] = second compound 0.1 µM, first compound 10 µM
[19] = second compound 0.316 µM, first compound 0.0316 µM
[20] = second compound 0.316 µM, first compound 0.1 µM
[21] = second compound 0.316 µM, first compound 0.316 µM
[22] = second compound 0.316 µM, first compound 1 µM
[23] = second compound 0.316 µM, first compound 3.16 µM
[24] = second compound 0.316 µM, first compound 10 µM
[25] = second compound 1 µM, first compound 0.0316 µM
[26] = second compound 1 µM, first compound 0.1 µM
[27] = second compound 1 µM, first compound 0.316 µM
[28] = second compound 1 µM, first compound 1 µM
[29] = second compound 1 µM, first compound 3.16 µM
[30] = second compound 1 µM, first compound 10 µM
[31] = second compound 3.16 µM, first compound 0.0316 µM
[32] = second compound 3.16 µM, first compound 0.1 µM
[33] = second compound 3.16 µM, first compound 0.316 µM
[34] = second compound 3.16 µM, first compound 1 µM
[35] = second compound 3.16 µM, first compound 3.16 µM
[36] = second compound 3.16 µM, first compound 10 µM
[37] = second compound 10 µM, first compound 0.0316 µM
[38] = second compound 10 µM, first compound 0.1 µM
[39] = second compound 10 µM, first compound 0.316 µM
[40] = second compound 10 µM, first compound 1 µM
[41] = second compound 10 µM, first compound 3.16 µM
[42] = second compound 10 µM, first compound 10 µM
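Further: spheroids exposed to the compounds for 7 days.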
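Wherever viability, T/C is given: 100% = DMSO vehicle control viability.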

IC50 (curve of compound): > 10000 nM
Structure (SMILES): CC(CO)NC(=O)c1cc(-c2ccc(Cl)cc2)nn(-c2cnn(C)c2)c1=O (stereo not given)
viability, T/C (compound 0.0316 µM): 102% and 93.8% | viability, T/C (compound 0.1 µM): 95.6% and 100% | viability, T/C (compound 0.316 µM): 97.7% and 89.3% | viability, T/C (compound 1 µM): 101% and 94.3% | viability, T/C (compound 3.16 µM): 102% and 94.3% | viability, T/C (compound 10 µM): 95.6% and 99.3%

IC50 [1]: > 10000 nM | IC50 [2]: > 10000 nM | IC50 [3]: > 10000 nM | IC50 [4]: < 31.6 nM | IC50 [5]: < 31.6 nM | IC50 [6]: < 31.6 nM
Structure (SMILES): C=CC(=O)N1CCN(c2nc(=O)n(-c3c(C)ccnc3C(C)C)c3nc(-c4c(O)cccc4F)c(F)cc23)C(C)C1 (stereo not given) + CNC(=O)c1ccc(Nc2nc(OC3CCCC3)c3c(-c4ccc5nc(C)oc5c4)c[nH]c3n2)c(OC)c1
viability, T/C [7]: 99.7% | viability, T/C [8]: 82.6% | viability, T/C [9]: 96.6% | viability, T/C [10]: 108% | viability, T/C [11]: 124% | viability, T/C [12]: 103% | viability, T/C [13]: 82.7% | viability, T/C [14]: 91.5% | viability, T/C [15]: 90.3% | viability, T/C [16]: 92.1% | viability, T/C [17]: 101% | viability, T/C [18]: 88% | viability, T/C [19]: 50.4% | viability, T/C [20]: 59.7% | viability, T/C [21]: 56.9% | viability, T/C [22]: 53.4% | viability, T/C [23]: 59% | viability, T/C [24]: 58.3% | viability, T/C [25]: 40.6% | viability, T/C [26]: 47.7% | viability, T/C [27]: 36.3% | viability, T/C [28]: 46.1% | viability, T/C [29]: 41.2% | viability, T/C [30]: 40.6% | viability, T/C [31]: 42.8% | viability, T/C [32]: 39.2% | viability, T/C [33]: 41.1% | viability, T/C [34]: 45.2% | viability, T/C [35]: 53% | viability, T/C [36]: 36.4% | viability, T/C [37]: 31.3% | viability, T/C [38]: 33.5% | viability, T/C [39]: 35.4% | viability, T/C [40]: 41% | viability, T/C [41]: 40% | viability, T/C [42]: 28.3%

IC50 (curve of compound): > 100 nM
Structure (SMILES): Cn1ncnc1[C@H]1c2n[nH]c(=O)c3cc(F)cc(c23)N[C@@H]1c1ccc(F)cc1
viability, T/C (compound 0.000316 µM): 115% and 86.3% | viability, T/C (compound 0.001 µM): 96.7% and 94.6% | viability, T/C (compound 0.00316 µM): 93.1% and 98.7% | viability, T/C (compound 0.01 µM): 92.4% and 87.5% | viability, T/C (compound 0.0316 µM): 73.8% and 87% | viability, T/C (compound 0.1 µM): 69.2% and 77.6%

Structure (SMILES): COc1cccc2c1C(=O)c1c(O)c3c(c(O)c1C2=O)CC(O)(C(=O)CO)CC3OC1CC(N)C(O)C(C)O1 (stereo not given) + CN1CCN(c2cc(C(=O)Nc3cc4cc(-c5cnn(C)c5)ccc4cn3)ccn2)CC1
IC50 [1]: 87.3 nM | IC50 [2]: 46.7 nM | IC50 [3]: < 31.6 nM | IC50 [4]: < 31.6 nM | IC50 [5]: < 31.6 nM | IC50 [6]: < 31.6 nM | viability, T/C [7]: 63.8% | viability, T/C [8]: 45.1% | viability, T/C [9]: 28.2% | viability, T/C [10]: 1.26% | viability, T/C [11]: 0.13% | viability, T/C [12]: 0.12% | viability, T/C [13]: 55.6% | viability, T/C [14]: 38.7% | viability, T/C [15]: 20.3% | viability, T/C [16]: 1.08% | viability, T/C [17]: 0.17% | viability, T/C [18]: 0.22% | viability, T/C [19]: 14.6% | viability, T/C [20]: 12.6% | viability, T/C [21]: 3.13% | viability, T/C [22]: 0.26% | viability, T/C [23]: 0.13% | viability, T/C [24]: 0.18% | viability, T/C [25]: 0.21% | viability, T/C [26]: 0.85% | viability, T/C [27]: 0.41% | viability, T/C [28]: 0.34% | viability, T/C [29]: 0.12% | viability, T/C [30]: 0.14% | viability, T/C [31]: 0.22% | viability, T/C [32]: 0.15% | viability, T/C [33]: 2.26% | viability, T/C [34]: 0.14% | viability, T/C [35]: 0.21% | viability, T/C [36]: 0.12% | viability, T/C [37]: 0.07% | viability, T/C [38]: 0.94% | viability, T/C [39]: 0.15% | viability, T/C [40]: 0.12% | viability, T/C [41]: 0.14% | viability, T/C [42]: 0.67%

IC50 (compound alone, run of 09/18/2023): 168 nM [middle of 10 runs]
Structure (SMILES): CN1CCN(c2cc(C(=O)Nc3cc4cc(-c5cnn(C)c5)ccc4cn3)ccn2)CC1
viability, T/C (compound 0.0316 µM): 92.8% [middle of 12 runs] | viability, T/C (compound 0.1 µM): 75.6% [middle of 12 runs] | viability, T/C (compound 0.316 µM): 19.5% [middle of 12 runs] | viability, T/C (compound 1 µM): 2.43% [middle of 12 runs] | viability, T/C (compound 3.16 µM): 0.92% [middle of 10 runs] | viability, T/C (compound 10 µM): 0.22% [middle of 9 runs]

Source: PubChem BioAssay AID2060601 (Molecular Pharmacology Branch, DTP, NCI, 2025)
